Laboratory results: ChEMBL document CHEMBL2176907, “Identification of multiple 5-HT₄ partial agonist clinical candidates for the treatment of Alzheimer's disease” (J Med Chem, 2012)
pEC50, pKi: −log10 of the molar value. Activity calls are given as the source filed them. The rule behind the calls is not given here.

Key:
[1] = target: 5-hydroxytryptamine receptor 4 (Rattus norvegicus) (UniProt Q62758); test: Agonist activity at 5HT4 receptor in rat oesophagus assessed as reversal of carbamylcholine-induced contraction at 10 uM incubated at 7 mins post carbamylcholine-challenge measured after 30 mins relative to 5HT; type: functional
Sequence of 5-hydroxytryptamine receptor 4 (Rattus norvegicus) (Q62758 whole entry): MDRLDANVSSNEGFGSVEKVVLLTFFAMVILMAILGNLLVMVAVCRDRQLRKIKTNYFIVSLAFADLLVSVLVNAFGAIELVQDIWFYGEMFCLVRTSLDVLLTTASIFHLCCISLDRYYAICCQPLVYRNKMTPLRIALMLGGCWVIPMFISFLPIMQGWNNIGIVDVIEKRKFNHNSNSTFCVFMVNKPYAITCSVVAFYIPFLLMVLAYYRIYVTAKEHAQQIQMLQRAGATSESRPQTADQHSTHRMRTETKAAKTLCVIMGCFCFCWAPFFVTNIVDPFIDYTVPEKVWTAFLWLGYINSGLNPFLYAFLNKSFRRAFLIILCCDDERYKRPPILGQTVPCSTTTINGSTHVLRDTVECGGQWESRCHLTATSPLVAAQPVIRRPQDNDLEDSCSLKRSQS

[2] = target: CYP2D6 (Homo sapiens, UniProt P10635); test: Inhibition of CYP2D6 in human liver microsomes using dextromethorphan as substrate at 3 uM; type: ADME, Microsome; details: probe dextromethorphan
Sequence of CYP2D6 (P10635 whole entry): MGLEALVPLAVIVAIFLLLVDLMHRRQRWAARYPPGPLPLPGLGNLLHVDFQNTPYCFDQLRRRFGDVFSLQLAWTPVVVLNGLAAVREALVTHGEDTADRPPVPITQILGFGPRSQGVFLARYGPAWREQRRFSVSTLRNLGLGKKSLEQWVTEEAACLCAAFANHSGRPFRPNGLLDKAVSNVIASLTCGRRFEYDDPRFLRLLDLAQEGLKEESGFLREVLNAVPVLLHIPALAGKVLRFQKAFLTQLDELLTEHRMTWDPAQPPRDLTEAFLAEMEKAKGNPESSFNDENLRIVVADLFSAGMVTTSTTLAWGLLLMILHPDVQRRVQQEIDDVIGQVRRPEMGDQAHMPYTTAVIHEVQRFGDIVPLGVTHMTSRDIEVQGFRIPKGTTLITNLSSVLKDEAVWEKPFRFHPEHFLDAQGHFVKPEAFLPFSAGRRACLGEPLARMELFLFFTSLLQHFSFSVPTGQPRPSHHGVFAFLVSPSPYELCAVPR

[3] = target: T1, 5-hydroxytryptamine receptor 4 (Homo sapiens, UniProt Q13639); test: Agonist activity at human 5HT4D receptor expressed in HEK293 cells assessed as cAMP production after 30 mins by HTRF assay; type: functional, cell-based
T1 sequence (Q13639 whole entry): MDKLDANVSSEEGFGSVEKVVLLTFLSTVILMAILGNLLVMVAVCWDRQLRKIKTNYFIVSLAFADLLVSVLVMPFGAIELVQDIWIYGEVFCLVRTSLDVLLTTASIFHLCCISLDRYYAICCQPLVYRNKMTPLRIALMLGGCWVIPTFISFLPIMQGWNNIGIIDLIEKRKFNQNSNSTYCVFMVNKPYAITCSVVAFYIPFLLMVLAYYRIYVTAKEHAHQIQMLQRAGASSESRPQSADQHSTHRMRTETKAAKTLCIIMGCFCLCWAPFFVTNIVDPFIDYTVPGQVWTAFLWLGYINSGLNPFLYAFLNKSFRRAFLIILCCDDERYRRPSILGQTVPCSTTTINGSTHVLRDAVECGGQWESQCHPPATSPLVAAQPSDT

[4] = Apparent permeability from apical to basal side of RRCK cells at 2 uM after 2 hrs by transwell assay; type: ADME, cell-based, Canis lupus familiaris, MDCKII-LE; details: dog, MDCK
[5] = target: T1, 5-hydroxytryptamine receptor 4; test: biochemical
Description: Displacement of [3H]GR113808 from human 5HT4D receptor expressed in HEK293 cells after 30 mins by liquid scintillation counting

[6] = Intrinsic clearance in human liver microsomes; type: ADME, Microsome; details: read-out: CLH
[7] = target: T1, 5-hydroxytryptamine receptor 4; test: Agonist activity at human 5HT4D receptor expressed in HEK293 cells assessed as cAMP production after 30 mins by HTRF assay relative to 5HT; type: functional, cell-based
[8] = test system: Canis familiaris; test: Gastrointestinal toxicity in beagle dog assessed as decrease in food intake administered as repeated dose for 7 days measured up to 1 month; type: organism-based, Canis lupus familiaris; details: in vivo, 168 h
[9] = test system: Rattus norvegicus; test: Gastrointestinal toxicity in male Sprague-Dawley rat assessed as reduction in body weight at 100 mg/kg administered as repeated dose for 7 days measured up to 1 month; type: organism-based; parameters: dose 100 mg/kg; details: in vivo, 168 h
[10] = Clearance in iv dosed dog; type: ADME, organism-based, Canis lupus familiaris; details: in vivo
[11] = Ratio of free drug concentration in brain to free drug concentration in plasma in sc dosed Sprague-Dawley rat; type: ADME, organism-based; details: read-out: K(p,uu,brain)
[12] = test system: MDR1; test: in vitro; details: dog, MDCK-MDR1
Description: Efflux ratio of permeability from basal to apical to apical to basal side of MDCK cells expressing MDR1 at 2 uM after 5 hrs by transwell assay

[13] = test system: Rattus norvegicus; test: Gastrointestinal toxicity in female Sprague-Dawley rat assessed as reduction in body weight at 30 mg/kg administered as repeated dose for 7 days measured up to 1 month; type: organism-based; parameters: dose 30 mg/kg; details: in vivo, 168 h
[14] = target: T1, 5-hydroxytryptamine receptor 4; test: biochemical; remark: listed apart in the source
Description: Displacement of [3H]GR113808 from human 5HT4B receptor expressed in HEK293 cells after 30 mins by liquid scintillation counting

[15] = target: T2, 5-hydroxytryptamine receptor 4 (Rattus norvegicus, UniProt Q62758)
T2 sequence (Q62758 whole entry): as the sequence (Q62758 whole entry) above
Description: Agonist activity at rat 5HT4L receptor expressed in HEK293 cells assessed as increase in cAMP production after 30 mins by HTRF assay

[16] = test system: Rattus norvegicus; test: Displacement of [3H]SB207145 from 5HT4 receptor in sc dosed Sprague-Dawley rat striatal membrane incubated for 45 mins prior to [3H]SB207145-adminsitration measured after 15 mins; type: functional, organism-based; details: Striatum
[17] = AUC (0 to 4 hrs) in sc dosed Sprague-Dawley rat CSF by LC-MS/MS analysis; type: ADME, organism-based; parameters: time < 4 hr, route subcutaneous
[18] = Oral bioavailability in dog; type: ADME, organism-based, Canis lupus familiaris; details: in vivo
[19] = test system: Canis familiaris; test: Neurotoxicity in beagle dog assessed as convulsions at 30 mg/kg administered as repeated dose for 7 days measured up to 1 month; type: toxicity, organism-based, Canis lupus familiaris; parameters: dose 30 mg/kg; details: in vivo, 168 h
[20] = test system: Nucleic Acid; test: Ratio of drug uptake in CSF to free drug concentration in brain in sc dosed Sprague-Dawley rat; type: ADME, organism-based; details: in vivo
[21] = test system: Rattus norvegicus; test: Gastrointestinal toxicity in Sprague-Dawley rat assessed as decrease in food intake administered as repeated dose for 7 days measured up to 1 month; type: organism-based; details: in vivo, 168 h
[22] = target: T1, 5-hydroxytryptamine receptor 4
Description: Agonist activity at human 5HT4B receptor expressed in HEK293 cells assessed as increase in cAMP production after 30 mins by HTRF assay

[23] = target: T2, 5-hydroxytryptamine receptor 4; remark: listed apart in the source
Description: Displacement of [3H]GR113808 from 5HT4 receptor in rat striatal membrane after 30 mins by liquid scintillation counting

[24] = Intrinsic clearance in rat liver microsomes; type: ADME, Microsome; details: read-out: CLH
[25] = Clearance in iv dosed rat; type: ADME, organism-based; details: in vivo
[26] = target: T1, 5-hydroxytryptamine receptor 4; test: biochemical; remark: listed apart in the source
Description: Displacement of [3H]GR113808 from human 5HT4E receptor expressed in CHO cells after 30 mins by liquid scintillation counting

[27] = test system: Rattus norvegicus; test: Gastrointestinal toxicity in female Sprague-Dawley rat assessed as mucosal injury at 30 mg/kg administered as repeated dose for 7 days measured up to 1 month; type: organism-based; parameters: dose 30 mg/kg; details: in vivo, 168 h
[28] = target: T1, 5-hydroxytryptamine receptor 4; test: biochemical; remark: listed apart in the source
Description: Displacement of [3H]GR113808 from human 5HT4A receptor expressed in HEK293 cells after 30 mins by liquid scintillation counting

[29] = target: T2, 5-hydroxytryptamine receptor 4; remark: listed apart in the source
Description: Agonist activity at rat 5HT4S receptor expressed in HEK293 cells assessed as increase in cAMP production after 30 mins by HTRF assay

[30] = test system: Rattus norvegicus; test: Gastrointestinal toxicity in male Sprague-Dawley rat assessed as mucosal injury at 100 mg/kg administered as repeated dose for 7 days measured up to 1 month; type: organism-based; parameters: dose 100 mg/kg; details: in vivo, 168 h
[31] = Oral bioavailability in rat; type: ADME, organism-based; details: in vivo
[32] = test system: Canis familiaris; test: Gastrointestinal toxicity in beagle dog assessed as emesis at 20 mg/kg administered as repeated dose for 7 days measured up to 1 month; type: organism-based, Canis lupus familiaris; parameters: dose 20 mg/kg; details: in vivo, 168 h
[33] = test system: Nucleic Acid; test: Ratio of drug uptake in CSF to free drug concentration in plasma in sc dosed Sprague-Dawley rat; type: ADME, organism-based; details: in vivo
[34] = test system: Rattus norvegicus; test: Procognitive activity in Sprague-Dawley rat assessed as increase in acetylcholine level in prefrontal cortex at 5 mg/kg, sc after 3 hrs by brain microdialysis relative to control; type: functional, organism-based; parameters: dose 5 mg/kg
[35] = target: T1, 5-hydroxytryptamine receptor 4; remark: listed apart in the source
Description: Agonist activity at human 5HT4E receptor expressed in HEK293 cells assessed as increase in cAMP production after 30 mins by HTRF assay

[36] = Intrinsic clearance in dog liver microsomes; type: ADME, Canis lupus familiaris, Microsome; details: read-out: CLH
[37] = test system: Brain; test: Free AUC (0 to 4 hrs) in sc dosed Sprague-Dawley rat brain by LC-MS/MS analysis; type: ADME, organism-based; details: in vivo
[38] = test system: Plasma; test: Free AUC (0 to 4 hrs) in sc dosed Sprague-Dawley rat plasma by LC-MS/MS analysis; type: ADME, organism-based; details: in vivo
[39] = target: T1, 5-hydroxytryptamine receptor 4; remark: listed apart in the source
Description: Agonist activity at human 5HT4A receptor expressed in HEK293 cells assessed as increase in cAMP production after 30 mins by HTRF assay

[40] = target: T2, 5-hydroxytryptamine receptor 4; remark: listed apart in the source
Description: Agonist activity at rat 5HT4E receptor expressed in HEK293 cells assessed as increase in cAMP production after 30 mins by HTRF assay

[41] = test system: Canis familiaris; test: Cardiotoxicity in beagle dog assessed as increase in systolic blood pressure at 0.05 mg/kg administered as repeated dose for 7 days measured up to 1 month; type: toxicity, organism-based, Canis lupus familiaris, Artery; parameters: dose 0.05 mg/kg; details: in vivo, 168 h
[42] = test system: Rattus norvegicus; test: Receptor occupancy of 5HT4 receptor in Sprague-Dawley rat brain at 5 mg/kg, sc up to 4 hrs; type: functional; details: route subcutaneous

Question: For `COCCCN1CCC(NC(=O)c2cc(Cl)c(N)c3c2OCC3)CC1`, which Activity [1] is on record?
Answer: Active

Question: With `CCCCN1CCC(COc2noc3cccc(OC4CCCC4)c23)CC1` as the molecule, how does the inhibition at 3 µM [2] read?
Answer: 79%

Question: What about the pEC50 [3] of the same molecule?
Answer: 8.92

Question: What about the Papp A→B at 2 h, 2 µM [4] of the same molecule?
Answer: 2.4 ×10⁻⁶ cm/s

Question: What about the pKi [5] of the same molecule?
Answer: 9.13

Question: And the CLint scaled [6]?
Answer: 77 mL/min/kg

Question: And the Emax [7]?
Answer: 81%

Question: Which inhibition at 3 µM [2] does the source give for `CCCCN1CCC(COc2noc3cccc(OCC(C)(C)C)c23)CC1` here?
Answer: 93%

Question: And the pEC50 [3]?
Answer: 8.20

Question: What about the pKi [5] of the same molecule?
Answer: 8.28

Question: And the Emax [7]?
Answer: 95%

Question: Which Activity [8] does the source give for `CC1(C)C(=O)N(C(=O)NCC2CCN(CC3(O)CCOCC3)CC2)c2cc(F)ccc21` [PF-03382792] here?
Answer: Toxic

Question: What about the Activity [9] of the same molecule?
Answer: Toxic

Question: And the clearance [10]?
Answer: 12.4 mL/min/kg

Question: And the Kp uu [11]?
Answer: 1.8

Question: What about the efflux ratio at 5 h, 2 µM [12] of the same molecule?
Answer: 1.37

Question: What about the Activity [13] of the same molecule?
Answer: Toxic

Question: What about the pKi [14] of the same molecule?
Answer: 8.17

Question: And the pEC50 [15]?
Answer: 8.82

Question: What about the Activity [16] of the same molecule?
Answer: Dose-dependent effect

Question: What about the pEC50 [3] of the same molecule?
Answer: 9.05

Question: What about the AUC(0-t) at 4 h [17] of the same molecule?
Answer: 1.38 µM·h

Question: And the bioavailability [18]?
Answer: 51%

Question: What about the Activity [19] of the same molecule?
Answer: Toxic

Question: And the Papp A→B at 2 h, 2 µM [4]?
Answer: > 27 ×10⁻⁶ cm/s

Question: What about the pKi [5] of the same molecule?
Answer: 8.57

Question: And the Ratio [20]?
Answer: 2.1

Question: And the Activity [21]?
Answer: Toxic

Question: What about the pEC50 [22] of the same molecule?
Answer: 8.89

Question: And the CLint scaled [6]?
Answer: 25.4 mL/min/kg

Question: And the pKi [23]?
Answer: 8.41

Question: And the CLint scaled [24]?
Answer: 42.7 mL/min/kg

Question: And the clearance [25]?
Answer: 104 mL/min/kg

Question: What about the pKi [26] of the same molecule?
Answer: 8.20

Question: What about the Activity [27] of the same molecule?
Answer: Toxic

Question: What about the pKi [28] of the same molecule?
Answer: 8.34

Question: And the pEC50 [29]?
Answer: 8.94

Question: And the Activity [30]?
Answer: Toxic

Question: And the bioavailability [31]?
Answer: 100%

Question: And the Emax [7]?
Answer: 35%

Question: What about the Activity [32] of the same molecule?
Answer: Toxic

Question: And the Ratio [33]?
Answer: 0.8

Question: And the Activity [34]?
Answer: Active

Question: What about the pEC50 [35] of the same molecule?
Answer: 8.92

Question: What about the CLint scaled [36] of the same molecule?
Answer: 35.4 mL/min/kg

Question: What about the fAUC [37] of the same molecule?
Answer: 2.922 µM·h

Question: And the fAUC [38]?
Answer: 1.669 µM·h

Question: What about the pEC50 [39] of the same molecule?
Answer: 9.10

Question: And the pEC50 [40]?
Answer: 8.67

Question: And the Activity [41]?
Answer: Toxic

Question: And the Occ [42]?
Answer: >90%

Question: With `CCCCN1CCC(COc2noc3cccc(OCC4CCC4)c23)CC1` as the molecule, how does the inhibition at 3 µM [2] read?
Answer: 93%
